Source: PubChem BioAssay (NCI)
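Test compounds were applied to cells in 96-well plates for 48 hours at 5 doses. GI50 = concentration required for 50% inhibition of growth. TGI is the concentration that stops growth completely.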

Legend:
Assay in all cases: inhibition of tumour cell growth, NCI panel, 48 h
[1] = tested on: 786-0 renal
[2] = tested on: A498 renal
[3] = tested on: A549 NSCLC
[4] = tested on: ACHN renal
[5] = tested on: BT-549 breast
[6] = tested on: CAKI-1 renal
[7] = tested on: CCRF-CEM leukemia
[8] = tested on: COLO 205 colon
[9] = tested on: DU-145 prostate
[10] = tested on: EKVX NSCLC
[11] = tested on: HCC-2998 colon
[12] = tested on: HCT-116 colon
[13] = tested on: HCT-15 colon
[14] = tested on: HL-60(TB) leukemia
[15] = tested on: HOP-62 NSCLC
[16] = tested on: HOP-92 NSCLC
[17] = tested on: HS 578T breast
[18] = tested on: HT29 colon
[19] = tested on: IGROV1 ovarian
[20] = tested on: K-562 leukemia
[21] = tested on: KM12 colon
[22] = tested on: LOX IMVI melanoma
[23] = tested on: M14 melanoma
[24] = tested on: MALME-3M melanoma
[25] = tested on: MCF7 breast
[26] = tested on: MDA-MB-231 breast
[27] = tested on: MDA-MB-435
[28] = tested on: MOLT-4 leukemia
[29] = tested on: NCI-H226 lung
[30] = tested on: NCI-H23 lung
[31] = tested on: NCI-H460 lung
[32] = tested on: NCI-H522 lung
[33] = tested on: NCI/ADR-RES ovarian
[34] = tested on: OVCAR-3 ovarian
[35] = tested on: OVCAR-4 ovarian
[36] = tested on: OVCAR-5 ovarian
[37] = tested on: OVCAR-8 ovarian
[38] = tested on: PC-3 prostate
[39] = tested on: RPMI-8226 leukemia
[40] = tested on: RXF 393 renal
[41] = tested on: SF-268 CNS
[42] = tested on: SF-295 CNS
[43] = tested on: SF-539 CNS
[44] = tested on: SK-MEL-2 melanoma
[45] = tested on: SK-MEL-28 melanoma
[46] = tested on: SK-MEL-5 melanoma
[47] = tested on: SK-OV-3 ovarian
[48] = tested on: SN12C renal
[49] = tested on: SNB-19 CNS
[50] = tested on: SNB-75 CNS
[51] = tested on: SR leukemia
[52] = tested on: SW-620 colon
[53] = tested on: T-47D breast
[54] = tested on: TK-10 renal
[55] = tested on: U251 CNS
[56] = tested on: UACC-257 melanoma
[57] = tested on: UACC-62 melanoma
[58] = tested on: UO-31 renal

`CCCn1cnc2c(c1=N)C(c1ccc(OC)cc1)c1sc3c(CC)cccc3c1O2` (stereo not given) was tested, and the GI50 [1] was 0.534 µM, the TGI [1] was 12.8 µM and the GI50 [2] was 0.334 µM. It also gave a TGI [2] of 1.41 µM, a GI50 [3] of 0.827 µM and a TGI [3] of 20.9 µM. It also gave a GI50 [4] of 0.725 µM, a TGI [4] of 17.7 µM and a GI50 [5] of 0.691 µM. The TGI [5] was 16 µM, the GI50 [6] was 0.476 µM and the TGI [6] was 20.6 µM. The GI50 [7] was 0.421 µM, the GI50 [8] was 0.844 µM and the TGI [8] was 8.27 µM. It also gave a GI50 [9] of 0.665 µM, a TGI [9] of 13.7 µM and a GI50 [10] of 0.941 µM. It also gave a TGI [10] of 20 µM, a GI50 [11] of 1.3 µM and a TGI [11] of 6.6 µM. It also gave a GI50 [12] of 0.382 µM, a TGI [12] of 4.77 µM and a GI50 [13] of 0.441 µM. For the same compound, the TGI [13] was 6.21 µM, the GI50 [14] was 0.279 µM and the TGI [14] was 1.03 µM. The GI50 [15] was 0.553 µM, the TGI [15] was 14.8 µM and the GI50 [16] was 1.19 µM. For the same compound, the TGI [16] was 11.2 µM, the GI50 [17] was 0.384 µM and the TGI [17] was 5.76 µM. The GI50 [18] was 0.512 µM, the TGI [18] was 9.09 µM and the GI50 [19] was 0.612 µM. The TGI [19] was 29.4 µM, the GI50 [20] was 0.338 µM and the TGI [20] was greater than 31.6 µM. The GI50 [21] was 0.445 µM, the TGI [21] was 24.9 µM and the GI50 [22] was 0.685 µM. For the same compound, the TGI [22] was 5.43 µM, the GI50 [23] was 0.389 µM and the TGI [23] was 6.18 µM. The GI50 [24] was 0.726 µM, the TGI [24] was 21.7 µM and the GI50 [25] was 0.345 µM. The TGI [25] was 11.6 µM, the GI50 [26] was 1.36 µM and the TGI [26] was 13 µM. It also gave a GI50 [27] of 0.196 µM, a TGI [27] of 0.479 µM and a GI50 [28] of 0.505 µM. It also gave a TGI [28] of 5.78 µM, a GI50 [29] of 0.964 µM and a TGI [29] of 11.2 µM. It also gave a GI50 [30] of 1.27 µM, a TGI [30] of 18.1 µM and a GI50 [31] of 0.378 µM. For the same compound, the TGI [31] was 4.45 µM, the GI50 [32] was 0.346 µM and the TGI [32] was 4.94 µM. It also gave a GI50 [33] of 0.389 µM, a TGI [33] of 10 µM and a GI50 [34] of 0.378 µM. It also gave a TGI [34] of 2.97 µM, a GI50 [35] of 1.35 µM and a TGI [35] of 23.5 µM. For the same compound, the GI50 [36] was 2.59 µM, the TGI [36] was 17.9 µM and the GI50 [37] was 1.01 µM. For the same compound, the TGI [37] was 15.8 µM, the GI50 [38] was 0.551 µM and the TGI [38] was 16.9 µM. For the same compound, the GI50 [39] was 0.375 µM, the TGI [39] was 2.56 µM and the GI50 [40] was 0.272 µM. It also gave a TGI [40] of 0.883 µM, a GI50 [41] of 0.702 µM and a TGI [41] of 26.1 µM. For the same compound, the GI50 [42] was 0.392 µM, the TGI [42] was 7.24 µM and the GI50 [43] was 0.334 µM. For the same compound, the TGI [43] was 1.4 µM, the GI50 [44] was 0.608 µM and the TGI [44] was 14.7 µM. It also gave a GI50 [45] of 2.14 µM, a TGI [45] of 36.7 µM and a GI50 [46] of 0.578 µM. It also gave a TGI [46] of 7.28 µM, a GI50 [47] of 0.818 µM and a TGI [47] of 26.9 µM. The GI50 [48] was 0.867 µM, the TGI [48] was 7.6 µM and the GI50 [49] was 0.478 µM. The TGI [49] was 14.6 µM, the GI50 [50] was 0.22 µM and the TGI [50] was 1.09 µM. For the same compound, the GI50 [51] was 0.319 µM, the TGI [51] was 3.23 µM and the GI50 [52] was 0.515 µM. The TGI [52] was 14.8 µM, the GI50 [53] was 0.518 µM and the TGI [53] was greater than 49.2 µM. For the same compound, the GI50 [54] was 5.13 µM, the TGI [54] was 32.4 µM and the GI50 [55] was 0.438 µM. The TGI [55] was 12.5 µM, the GI50 [56] was 15 µM and the TGI [56] was greater than 100 µM. The GI50 [57] was 0.422 µM, the TGI [57] was 19.1 µM and the GI50 [58] was 0.714 µM. For the same compound, the TGI [58] was 29.9 µM.
